Test results as given in patent publication US8440660B2 (Santen Pharmaceutical Co., Ltd., priority 2006, dated 2013).

Target: T1, Glucocorticoid Receptor (GR) (Homo sapiens, UniProt P04150)
T1 construct: purchased Invitrogen P2816
T1 sequence (P04150 1-777): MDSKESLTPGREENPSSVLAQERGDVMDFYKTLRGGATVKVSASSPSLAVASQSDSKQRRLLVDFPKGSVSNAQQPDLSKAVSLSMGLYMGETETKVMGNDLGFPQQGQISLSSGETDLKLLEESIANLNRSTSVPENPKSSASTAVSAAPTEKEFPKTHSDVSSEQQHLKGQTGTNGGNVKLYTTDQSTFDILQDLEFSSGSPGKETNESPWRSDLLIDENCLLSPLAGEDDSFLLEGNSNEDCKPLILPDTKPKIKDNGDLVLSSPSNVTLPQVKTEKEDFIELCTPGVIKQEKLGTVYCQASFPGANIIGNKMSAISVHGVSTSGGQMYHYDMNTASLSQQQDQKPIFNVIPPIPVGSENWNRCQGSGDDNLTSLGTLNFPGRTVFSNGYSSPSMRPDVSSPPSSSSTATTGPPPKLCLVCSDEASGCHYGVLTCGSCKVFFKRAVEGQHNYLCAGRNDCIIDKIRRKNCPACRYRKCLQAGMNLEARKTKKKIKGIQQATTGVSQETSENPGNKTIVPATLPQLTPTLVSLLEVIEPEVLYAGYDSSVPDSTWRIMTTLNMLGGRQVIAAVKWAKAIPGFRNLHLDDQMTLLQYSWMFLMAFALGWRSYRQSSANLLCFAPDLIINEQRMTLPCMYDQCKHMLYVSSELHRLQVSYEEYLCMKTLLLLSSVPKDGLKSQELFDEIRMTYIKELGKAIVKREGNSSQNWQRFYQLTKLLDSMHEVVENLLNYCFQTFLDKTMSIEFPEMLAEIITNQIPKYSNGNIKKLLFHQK
Assay: GR receptor competitor assay by fluorescence polarization (Invitrogen GR competitor assay kit, cat No. P2816)
Details: 20 μM test compound solution, 10 μL per well plus 5 μL 4×GS1 and 5 μL 4×GR solution; recombinant human GR; 2 to 4 hours at room temperature; a ratio of 100% or more is indicated by 100%; read-out: GR Binding ratio (%)
Description: A detailed explanation of this matter will be described in the section of “Pharmacological Test” in Examples described below. In order to find the usefulness of the present compound as a pharmaceutical, a glucocorticoid receptor competitor assay was carried out by a fluorescence polarization method by using a glucocorticoid receptor competitor assay kit (manufactured by Invitrogen, cat No P2816) to study the glucocorticoid receptor binding activity of the present compound.
1. Evaluation Test for Binding Activity to Glucocorticoid Receptor (Hereinafter Referred to as “GR”)
In order to evaluate a binding activity to GR, a receptor competitor assay was carried out by a fluorescence polarization method. In the assay, a GR competitor assay kit (manufactured by Invitrogen, cat No. P2816) was used, and a procedure was carried out according to the protocol attached to the kit. Hereinafter, the specific method will be described.
(Preparation of Reagents)
GR screening buffer: A buffer containing 10 mM potassium phosphate (pH 7.4), 20 mM sodium molybdate (Na2MoO4), 0.1 mM ethylene diamine tetraacetic acid (EDTA), 5 mM dithiothreitol (DTT), 0.1 mM stabilizing peptide and 2% dimethylsulfoxide was prepared.
4×GS1 solution: Fluormone™ GS1, which is a fluorescent glucocorticoid ligand, was diluted with GR screening buffer, whereby a 4 nM solution was prepared.
4×GR solution: Recombinant human GR was diluted with GR screening buffer, whereby a 16 nM solution was prepared.
(Preparation of Test Compound Solution)
After a test compound was dissolved in dimethylsulfoxide, the resulting solution was diluted with GR screening buffer, whereby a 20 μM test compound solution was prepared.
(Test Method and Measurement Method)
1) The test compound solution was added in an amount of 10 μL into each well of a 384-well plate, and then, 4×GS1 solution and 4×GR solution were added in an amount of 5 μL into each well, respectively.
2) The plate was incubated in a dark place at room temperature for 2 to 4 hours.
3) By using a multimode plate reader, Analyst™ HT (manufactured by LJL Biosystems), fluorescence polarization of each well was measured. As the blank, a well containing GR screening buffer in place of the test compound and 4×GS1 solution was used.
4) The same procedure as that in the above 1) to 3) was carried out except that GR screening buffer was used in place of the test compound solution, and the obtained result was taken as the negative control.
5) The same procedure as that in the above 1) to 3) was carried out except that 2 mM dexamethasone was used in place of the test compound solution, and the obtained result was taken as the positive control.
(Calculation Equation of GR Binding Ratio)
A GR binding ratio (%) was calculated from the following equation. GR binding ratio (%)=100×[1−(fluorescence polarization of test compound solution−fluorescence polarization of positive control solution)/(fluorescence polarization of negative control solution−fluorescence polarization of positive control solution)] (Test Results and Discussion)

Structure (SMILES) | inhibition at 10 µM
COc1ccc(OC(=O)c2ccncc2)cc1-c1ccc2c(c1COc1cc(F)ccc1C)C(C)=CC(C)(C)N2 [Compound 1-45, 5-(5-Fluoro-2-methylphenoxymethyl)-6-[2-methoxy-5-(pyridin-4-ylcarbonyloxy)phenyl]-2,2,4-trimethyl-1,2-dihydroquinoline] | 95%
COc1cc(OS(=O)(=O)CC(C)C)ccc1-c1ccc2c(c1COc1cc(F)ccc1C)C(C)=CC(C)(C)N2 [Compound 4-28, 5-(5-Fluoro-2-methylphenoxymethyl)-6-(4-isobutylsulfonyloxy-2-methoxyphenyl)-2,2,4-trimethyl-1,2-dihydroquinoline] | 100%
COc1cc(OC(=O)c2ccc([N+](=O)[O-])cc2)ccc1-c1ccc2c(c1COc1cc(F)ccc1C)C(C)=CC(C)(C)N2 [Compound 1-40, 5-(5-Fluoro-2-methylphenoxymethyl)-6-[2-methoxy-4-(4-nitrobenzoyloxy)phenyl]-2,2,4-trimethyl-1,2-dihydroquinoline] | 100%
COc1cc(OC(=O)N2CCOCC2)ccc1-c1ccc2c(c1COc1cc([N+](=O)[O-])ccc1C)C(C)=CC(C)(C)N2 [Compound 6-30, 6-[2-Methoxy-4-(morpholin-4-ylcarbonyloxy)phenyl]-5-(2-methyl-5-nitrophenoxymethyl)-2,2,4-trimethyl-1,2-dihydroquinoline] | 100%
COc1cccc(NC(=O)Oc2ccc(-c3ccc4c(c3COc3cc(F)ccc3C)C(C)=CC(C)(C)N4)c(OC)c2)c1 [Compound 6-12, 5-(5-Fluoro-2-methylphenoxymethyl)-6-[2-methoxy-4-(3-methoxyphenylaminocarbonyloxy)phenyl]-2,2,4-trimethyl-1,2-dihydroquinoline] | 98%
CCS(=O)(=O)Oc1ccc(-c2ccc3c(c2COc2cc([N+](=O)[O-])ccc2C)C(C)=CC(C)(C)N3)c(OC)c1 [Compound 4-23, 6-(4-Ethylsulfonyloxy-2-methoxyphenyl)-5-(2-methyl-5-nitrophenoxymethyl)-2,2,4-trimethyl-1,2-dihydroquinoline] | 100%
COc1cc(OC(=O)c2cccnc2)ccc1-c1ccc2c(c1COc1cc([N+](=O)[O-])ccc1C)C(C)=CC(C)(C)N2 [Compound 1-94, 6-[2-Methoxy-4-(pyridin-3-ylcarbonyloxy)phenyl]-5-(2-methyl-5-nitrophenoxymethyl)-2,2,4-trimethyl-1,2-dihydroquinoline] | 100%
COc1ccc([N+](=O)[O-])cc1OCc1c(-c2ccc(OC(=O)c3ccccc3OC)cc2OC)ccc2c1C(C)=CC(C)(C)N2 [Compound 1-102, 6-[2-Methoxy-4-(2-methoxybenzoyloxy)phenyl]-5-(2-methoxy-5-nitrophenoxymethyl)-2,2,4-trimethyl-1,2-dihydroquinoline] | 100%
COc1cc(OC(=O)c2ccccc2OC(C)=O)ccc1-c1ccc2c(c1COc1cc(F)ccc1C)C(C)=CC(C)(C)N2 [Compound 1-50, 6-[4-(2-Acetoxybenzoyloxy)-2-methoxyphenyl]-5-(5-fluoro-2-methylphenoxymethyl)-2,2,4-trimethyl-1,2-dihydroquinoline] | 97%

Other lines, results leading:

inhibition at 10 µM | Structure (SMILES)
94% | COc1cc(OC(=O)c2ccccc2)ccc1-c1ccc2c(c1COc1cc(F)ccc1C)C(C)=CC(C)(C)N2 [Compound 1-1, 6-(4-Benzoyloxy-2-methoxyphenyl)-5-(5-fluoro-2-methylphenoxymethyl)-2,2,4-trimethyl-1,2-dihydroquinoline]
100% | COc1ccccc1C(=O)Oc1ccc(-c2ccc3c(c2COc2cc(F)ccc2C)C(C)=CC(C)(C)N3)c(OC)c1 [Compound 1-8, 5-(5-Fluoro-2-methylphenoxymethyl)-6-[2-methoxy-4-(2-methoxybenzoyloxy)phenyl]-2,2,4-trimethyl-1,2-dihydroquinoline]
100% | COc1cc(OC(=O)c2ccoc2)ccc1-c1ccc2c(c1COc1cc(F)ccc1C)C(C)=CC(C)(C)N2 [Compound 1-34, 5-(5-Fluoro-2-methylphenoxymethyl)-6-[4-(furan-3-ylcarbonyloxy)-2-methoxyphenyl]-2,2,4-trimethyl-1,2-dihydroquinoline]
100% | CCC(=O)Oc1ccc(-c2ccc3c(c2COc2cc(F)ccc2C)C(C)=CC(C)(C)N3)c(OC)c1 [Compound 1-16, 5-(5-Fluoro-2-methylphenoxymethyl)-6-(2-methoxy-4-propionyloxyphenyl)-2,2,4-trimethyl-1,2-dihydroquinoline]
96% | COc1cc(OC(=O)c2ccncc2F)ccc1-c1ccc2c(c1COc1cc(F)ccc1C)C(C)=CC(C)(C)N2 [Compound 1-91, 5-(5-Fluoro-2-methylphenoxymethyl)-6-[4-(3-fluoropyridin-4-ylcarbonyloxy)-2-methoxyphenyl]-2,2,4-trimethyl-1,2-dihydroquinoline]
100% | COc1cc(OC(=O)c2cscn2)ccc1-c1ccc2c(c1COc1cc(F)ccc1C)C(C)=CC(C)(C)N2 [Compound 1-54, 5-(5-Fluoro-2-methylphenoxymethyl)-6-[2-methoxy-4-(thiazol-4-ylcarbonyloxy)phenyl]-2,2,4-trimethyl-1,2-dihydroquinoline]
100% | COc1cc(OC(=O)c2ccc(C)nc2)ccc1-c1ccc2c(c1COc1cc(F)ccc1C)C(C)=CC(C)(C)N2 [Compound 1-69, 5-(5-Fluoro-2-methylphenoxymethyl)-6-[2-methoxy-4-(6-methylpyridin-3-ylcarbonyloxy)phenyl]-2,2,4-trimethyl-1,2-dihydroquinoline]
89% | COc1cc(OC(=O)CCc2ccccc2)ccc1-c1ccc2c(c1COc1cc(F)ccc1C)C(C)=CC(C)(C)N2 [Compound 1-33, 5-(5-Fluoro-2-methylphenoxymethyl)-6-[2-methoxy-4-(3-phenylpropionyloxy)phenyl]-2,2,4-trimethyl-1,2-dihydroquinoline]
100% | COc1cc(OC(=O)c2ccccn2)ccc1-c1ccc2c(c1COc1cc(F)ccc1C)C(C)=CC(C)(C)N2 [Compound 1-35, 5-(5-Fluoro-2-methylphenoxymethyl)-6-[2-methoxy-4-(pyridin-2-ylcarbonyloxy)phenyl]-2,2,4-trimethyl-1,2-dihydroquinoline]
100% | COc1cc(OC(=O)c2ccco2)ccc1-c1ccc2c(c1COc1cc(F)ccc1C)C(C)=CC(C)(C)N2 [Compound 1-19, 5-(5-Fluoro-2-methylphenoxymethyl)-6-[4-(furan-2-ylcarbonyloxy)-2-methoxyphenyl]-2,2,4-trimethyl-1,2-dihydroquinoline]
100% | COc1cc(OC(=O)c2ccc(C)o2)ccc1-c1ccc2c(c1COc1cc(F)ccc1C)C(C)=CC(C)(C)N2 [Compound 1-62, 5-(5-Fluoro-2-methylphenoxymethyl)-6-[2-methoxy-4-(5-methylfuran-2-ylcarbonyloxy)phenyl]-2,2,4-trimethyl-1,2-dihydroquinoline]
